# Source: US11180518B2, “Phenyl-heterocycle-phenyl derivatives for use in the treatment or prevention of melanoma” (MAX-PLANCK-GESELLSCHAFT ZUR FÖRDERUNG DER WISSENSCHAFTEN …, priority 2017, dated 2021)
# Assays:
# [1] = test system: α-synuclein-expressing WM983-B human metastatic melanoma cells; experiment: Test screening of DPP compounds in human metastatic melanoma cells (cell death read-out); type: cell-based; settings: WM983B, second 10 μM dose at 48 hr, serum-free culture medium, read at 48 h / 96 h
# Procedure: To determine the impact of the DPP compounds on high-level α-synuclein-expressing human melanoma cells, WM983-B melanoma cells were plated, in duplicate, in 12-well tissue culture plates in cell culture medium containing 10% fetal bovine serum. Twenty-four hours later, the cells were rinsed three-times with serum-free medium, followed by addition of serum-free medium containing each DPP compound at a dose of 10 μM. Following incubation of the DPP compound-treated cells at 37° C. for 48 hr, each DPP compound was added to the cells at a second 10 μM dose. Using light microscopy, changes in the cells' morphology>detachment of the cells from the cell culture dish/floating in the cell culture medium>cell death were recorded on a scale of 0, +, ++, +++, ++++ at the 24 hr, 48 hr, 72 hr and 96 hr time-point following addition of DPP compound.
# The DPP compounds were added to α-synuclein-expressing WM983-B human metastatic melanoma cells.
# Binding to FBS = type: in vitro ADME
# SK-MEL-5 melanoma cells [2] = experiment: Cell morphology (phase-contrast); type: cell-based, human; settings: increasing doses, serum-free medium; time- and dose-dependent
# From the text: (§1) To assess the possible impact of anle138b as well as anle138c on the different melanoma cell lines, WM983-A, WM983-B and SK-MEL-5, we treated them with increasing doses of either compound, dissolved in dimethyl sulfoxide (DMSO), and added to serum-free culture medium. […] We also observed that treatment with anle138b caused a more rapid morphological change than anle138c. To determine whether the effect of the two anle compounds was related to the amount of α-synuclein produced by the cells, we compared the proliferation of the (VGP) WM983-A high-level and the (RGP/VGP) WM1158 low-level α-synuclein-producing melanoma cells over a period of 96 hr, with replenishment of each anle compound at 48 hr (FIGS. 8A and B).
# (§2) 10 or 30 mM stock solutions of anle138b or anle138c were made in DMSO. Since anle138b as well as anle138c bind strongly to FBS, melanoma cells, plated for 24 hr in tissue-culture medium containing 10% FBS, were rinsed three times with serum-free medium prior to addition of anle138b, anle138c, or an equivalent volume of DMSO only in serum-free medium. Forty-eight hours later, the cell culture medium was removed, followed by addition of an equivalent dose of anle138b or anle138c, or DMSO only in serum-free culture medium. […] Proliferation of melanoma cells that had received DMSO only, or were treated with anle138b was determined by counting the cells with a hemocytometer.
# (§3) Cell morphology. Phase-contrast or DIC images of the melanoma cells that had been treated for various times with anle138b or anle138c, or had received DMSO only were captured with a 10×NA 0.6 objective on a Zeiss Axiovert 100 microscope with a Hamamatsu Orca charge-coupled device (CCD) camera. At least four images, at random areas per culture dish, were recorded for each time point.
# WM983-B melanoma cells [3] = experiment: Cell morphology (phase-contrast); type: cell-based, human; settings: increasing doses, serum-free medium; time- and dose-dependent
# From the text: as §1, §2, §3
# WM1158 melanoma cells [4] = experiment: Cell morphology (phase-contrast); type: cell-based, human; settings: 10 μM, up to 96 hr, replenishment at 48 hr
# From the text: as §1, §2, §3
# SK-MEL-5 melanoma cells [5] = experiment: Autophagy: LC3 immunofluorescence; type: cell-based, human; settings: compared with WM983-B cells
# Procedure: (§4) We observed a clear effect of the anle compounds on the autophagy pathway of the melanoma cells. […] Following addition of anle138c, the effect was seen later with levels of 8% at 24 hr and 78% after 96 hr.
# (§5) Autophagy. WM983-B and SK-MEL-5 cells that for 24 or 48 hr were treated with anle138 or had received DMSO only were fixed for 20 min with 3.7% PFA, permeabilized, blocked, and probed with an anti-LC3B [clone 2G6] antibody (nanoTools Antikörpertechnik GmbH & Co. KG, Teningen, Germany), followed by a donkey anti-mouse Alexa-488 secondary antibody and Draq5 DNA counterstain. Confocal image stacks were obtained with a 63×NA 1.2 objective on a Zeiss LSM 510 Meta confocal microscope.
# WM983-B melanoma cells [6] = experiment: Autophagy: LC3 immunofluorescence; type: cell-based, human
# Procedure: as §4, §5
# WM1158 melanoma cells [7] = experiment: Melanoma cell proliferation analysis; type: cell-based, human; settings: over 96 hr, replenishment at 48 hr
# From the text: as §1, §2
# [8] = test system: high-level α-synuclein expressing cell lines WM983-B; experiment: Initial screen of sixteen compounds from the DPP library; type: cell-based, human
# α-synuclein monomers = α-synuclein monomers (Homo sapiens, UniProt P37840); settings: cited from earlier work
# [9] = test system: WM983-A, WM983-B, and SK-MEL-5 melanoma cell lines; experiment: Apoptosis markers in treated melanoma cells; type: cell-based, human
# From the text: Although the morphological changes in the WM983-A, WM983-B, and SK-MEL-5 melanoma cell lines following addition of anle138b occurred quite rapidly, they were not indicative of the cells undergoing apoptosis. […] Differential interference contrast (DIC) images of the morphology of the anle138b-treated WM983-B, SK-MEL-5, and WM1158 melanoma cells from the same panels are shown in FIG. 9.
SMILES,cytotoxicity at 10 µM [1] [%],also measured
Brc1cccc(-c2cc(-c3ccc4c(c3)OCCCO4)n[nH]2)c1,100,–
Brc1cccc(-c2cc(-c3ccc4c(c3)OCCO4)n[nH]2)c1,100,–
Brc1cccc(-c2nc(-c3ccc4c(c3)OCCO4)co2)c1,100,–
Brc1cccc(-c2cc(-c3ccc4nccnc4c3)n[nH]2)c1,100,–
CN1CCOc2cc(-c3cc(-c4cccc(Br)c4)[nH]n3)ccc21,100,–
COc1ccc(-c2cc(-c3cccc(F)c3)on2)cc1OC,100,–
Oc1ccc(-c2cc(-c3cccc(F)c3)on2)cc1O,100,–
Oc1ccc(-c2noc(-c3cccc(F)c3)n2)cc1O,100,–
Brc1cccc(-c2c[nH]c(-c3ccc4c(c3)OCO4)n2)c1,100,–
FCCn1nc(-c2cccc(Br)c2)cc1-c1ccc2c(c1)OCO2,100,–
Nc1cccc(-c2ncc(-c3ccc(Cl)c(Cl)c3)o2)c1,100,–
COc1cccc(-c2c[nH]c(-c3cccc(Br)c3)n2)c1,100,–
Clc1cccc(-c2cc(-c3ccc4c(c3)OCCO4)n[nH]2)c1,100,–
CC1(C)CCc2cc(-c3cc(-c4cccc(Br)c4)[nH]n3)ccc2O1,100,–
Clc1cccc(-c2cc(-c3ccc4c(c3)OCO4)n[nH]2)c1,100,–
CN(C)c1ccc(-c2cc(-c3cccc(F)c3)on2)cc1,50 to 90,–
Oc1ccc(-c2cc(-c3cccc(F)c3)[nH]n2)cc1O,50 to 90,–

SMILES,cytotoxicity at 10 µM [1] [%],also measured
Oc1cccc(-c2cc(-c3cccc(Cl)c3)[nH]n2)c1,50 to 90,–
Cn1nc(-c2ccc3c(c2)OCO3)cc1-c1cccc(Br)c1,50 to 90,–
Cc1ccc(Br)cc1-c1nc(-c2cccc(OC(F)(F)F)c2)no1,50 to 90,–
Brc1cccc(-c2cc(-c3ccc4ccoc4c3)n[nH]2)c1,50 to 90,–
FC1(F)Oc2ccc(-c3cc(-c4cccc(Br)c4)[nH]n3)cc2O1,20 to 50,–
Brc1cccc(-c2cc(-c3ccc4ccccc4c3)n[nH]2)c1,20 to 50,–
Nc1ccc(-c2cc(-c3cccc(Cl)c3)[nH]n2)cc1,20 to 50,–
COc1ccc(-c2noc(-c3cccc(Cl)c3)n2)cc1,20 to 50,–
Cn1ccc2cc(-c3cc(-c4cccc(Br)c4)[nH]n3)ccc21,20 to 50,–
Fc1cccc(-c2cc(-c3ccc4c(c3)OCO4)n[nH]2)c1,< 20,–
CN(C)c1ccc(-c2cc(-c3cccc(Br)c3)no2)cc1,< 20,–
Brc1cccc(-c2nc(-c3ccc4c(c3)OCO4)no2)c1,< 20,–
Clc1cc(Cl)cc(-c2nc(-c3ccc4c(c3)OCO4)no2)c1,< 20,–
Oc1ccc(-c2cc(-c3cccc(Br)c3)[nH]n2)cc1O [anle138c],–,"binding to FBS (Binding to FBS): bind strongly; morphological changes (SK-MEL-5 melanoma cells [2]): major morphological changes; morphological changes (WM983-B melanoma cells [3]): major morphological changes; morphology (WM1158 melanoma cells [4]): did not show a significantly altered morphology; levels of punctuate LC3 loci (SK-MEL-5 melanoma cells [5]): even higher levels; cells with punctuate upregulation of LC3 (WM983-B melanoma cells [6]; 24 hr, cells still attached): 8%; cells with punctuate upregulation of LC3 (WM983-B melanoma cells [6]; 96 hr): 78%; proliferation (WM1158 melanoma cells [7]): reduced proliferation only after 48 hr; effect on WM983-B cells in initial screen [8]: significantly affected; binding to α-synuclein monomers (α-synuclein monomers): Neither of these two compounds binds to α-synuclein monomers; cleaved caspase 3 (apoptosis) [9]: nor were they positive for cleaved caspase 3"
"CN(C)c1ccc(-c2cc(-c3cccc(Br)c3)[nH]n2)cc1 [anle253b, 5-(3-Bromophenyl)-3-(4-dimethylaminophenyl)-1H-pyrazole]",–,effect on WM983-B cells in initial screen [8]: significantly affected
Oc1ccc(-c2cc(-c3cccc(Br)c3)[nH]n2)cc1O [drawing 77],100,–
CN(C)c1ccc(-c2cc(-c3cccc(Br)c3)[nH]n2)cc1 [drawing 79],100,–
